Reference: US20090005745A1, “Transdermal drug delivery systems for delivering anti-inflammatory drugs” (priority 2007, published 2009)

Tests used:
[1] = Skin permeability using the Example 1 formulations (Example 6)
Excerpt: Thus, adjustment of the drug concentration can be carried out in order to achieve a desired therapeutic effect.

[2] = Ketoprofen plasma levels achieved by on-knee patch delivery (Example 7); assay type: in vivo, human; conditions: N = 22; for concentration at 2 h / concentration at 4 h / concentration at 6 h / concentration at 8 h / concentration at 10 h / concentration at 12 h / concentration at 14 h / concentration at 16 h / concentration at 18 h / concentration at 20 h / concentration at 24 h / concentration at 28 h / concentration at 32 h / concentration at 36 h / concentration at 42 h / concentration at 48 h: human, plasma, topical, Mean Ketoprofen Plasma Concentration; for concentration at 2 h: applied 12 h
Procedure: In one study session, subjects received one patch above one knee and in the other study session subjects received two patches simultaneously, one above each knee. The patches were applied for 12 hours and venous blood samples were collected during both study session.

O=C(O)Cc1ccccc1Nc1c(Cl)cccc1Cl [diclofenac]
Skin permeability compared with ketoprofen [1]: less skin permeable

CC(C(=O)O)c1cccc(C(=O)c2ccccc2)c1 (centres unmarked) [Ketoprofen]
Mean Ketoprofen Plasma Concentration produced by unit skin-drug contact area ([2]; Single Patch, time point 2 hrs): 0.078 ng/ml/cm^2
Mean Ketoprofen Plasma Concentration produced by unit skin-drug contact area ([2]; Single Patch, time point 4 hrs): 0.366 ng/ml/cm^2
Mean Ketoprofen Plasma Concentration produced by unit skin-drug contact area ([2]; Single Patch, time point 6 hrs): 0.562 ng/ml/cm^2
Mean Ketoprofen Plasma Concentration produced by unit skin-drug contact area ([2]; Single Patch, time point 8 hrs): 0.675 ng/ml/cm^2
Mean Ketoprofen Plasma Concentration produced by unit skin-drug contact area ([2]; Single Patch, time point 10 hrs): 0.770 ng/ml/cm^2
Mean Ketoprofen Plasma Concentration produced by unit skin-drug contact area ([2]; Single Patch, time point 12 hrs): 0.703 ng/ml/cm^2
Mean Ketoprofen Plasma Concentration produced by unit skin-drug contact area ([2]; Single Patch, time point 14 hrs): 0.464 ng/ml/cm^2
Mean Ketoprofen Plasma Concentration produced by unit skin-drug contact area ([2]; Single Patch, time point 16 hrs): 0.282 ng/ml/cm^2
Mean Ketoprofen Plasma Concentration produced by unit skin-drug contact area ([2]; Single Patch, time point 18 hrs): 0.213 ng/ml/cm^2
Mean Ketoprofen Plasma Concentration produced by unit skin-drug contact area ([2]; Single Patch, time point 20 hrs): 0.160 ng/ml/cm^2
Mean Ketoprofen Plasma Concentration produced by unit skin-drug contact area ([2]; Single Patch, time point 24 hrs): 0.095 ng/ml/cm^2
Mean Ketoprofen Plasma Concentration produced by unit skin-drug contact area ([2]; Single Patch, time point 28 hrs): 0.058 ng/ml/cm^2
Mean Ketoprofen Plasma Concentration produced by unit skin-drug contact area ([2]; Single Patch, time point 32 hrs): 0.035 ng/ml/cm^2
Mean Ketoprofen Plasma Concentration produced by unit skin-drug contact area ([2]; Single Patch, time point 36 hrs): 0.028 ng/ml/cm^2
Mean Ketoprofen Plasma Concentration produced by unit skin-drug contact area ([2]; Single Patch, time point 42 hrs): 0.023 ng/ml/cm^2
Mean Ketoprofen Plasma Concentration produced by unit skin-drug contact area ([2]; Single Patch, time point 48 hrs): 0.019 ng/ml/cm^2
Mean Ketoprofen Plasma Concentration ([2]; Two Patches Dose-Normalized to one patch, time point 2 hrs): 3.9 ng/mL
Mean Ketoprofen Plasma Concentration ([2]; Two Patches Dose-Normalized to one patch, time point 4 hrs): 44.6 ng/mL
Mean Ketoprofen Plasma Concentration ([2]; Two Patches Dose-Normalized to one patch, time point 48 hrs): 3.1 ng/mL
Mean Ketoprofen Plasma Concentration produced by unit skin-drug contact area ([2]; Two Patches, time point 2 hrs): 0.023 ng/ml/cm^2
Mean Ketoprofen Plasma Concentration produced by unit skin-drug contact area ([2]; Two Patches, time point 4 hrs): 0.259 ng/ml/cm^2
Mean Ketoprofen Plasma Concentration produced by unit skin-drug contact area ([2]; Two Patches, time point 6 hrs): 0.512 ng/ml/cm^2
Mean Ketoprofen Plasma Concentration produced by unit skin-drug contact area ([2]; Two Patches, time point 8 hrs): 0.630 ng/ml/cm^2
Mean Ketoprofen Plasma Concentration produced by unit skin-drug contact area ([2]; Two Patches, time point 10 hrs): 0.714 ng/ml/cm^2
Mean Ketoprofen Plasma Concentration produced by unit skin-drug contact area ([2]; Two Patches, time point 12 hrs): 0.665 ng/ml/cm^2
Mean Ketoprofen Plasma Concentration produced by unit skin-drug contact area ([2]; Two Patches, time point 14 hrs): 0.454 ng/ml/cm^2
Mean Ketoprofen Plasma Concentration produced by unit skin-drug contact area ([2]; Two Patches, time point 16 hrs): 0.280 ng/ml/cm^2
Mean Ketoprofen Plasma Concentration produced by unit skin-drug contact area ([2]; Two Patches, time point 18 hrs): 0.199 ng/ml/cm^2
Mean Ketoprofen Plasma Concentration produced by unit skin-drug contact area ([2]; Two Patches, time point 20 hrs): 0.152 ng/ml/cm^2
Mean Ketoprofen Plasma Concentration produced by unit skin-drug contact area ([2]; Two Patches, time point 24 hrs): 0.090 ng/ml/cm^2
Mean Ketoprofen Plasma Concentration produced by unit skin-drug contact area ([2]; Two Patches, time point 28 hrs): 0.054 ng/ml/cm^2
Mean Ketoprofen Plasma Concentration produced by unit skin-drug contact area ([2]; Two Patches, time point 32 hrs): 0.036 ng/ml/cm^2
Mean Ketoprofen Plasma Concentration produced by unit skin-drug contact area ([2]; Two Patches, time point 36 hrs): 0.029 ng/ml/cm^2
Mean Ketoprofen Plasma Concentration produced by unit skin-drug contact area ([2]; Two Patches, time point 42 hrs): 0.021 ng/ml/cm^2
Mean Ketoprofen Plasma Concentration produced by unit skin-drug contact area ([2]; Two Patches, time point 48 hrs): 0.018 ng/ml/cm^2
concentration at 2 h ([2]; 136 mg, Single Patch (136 mg, 172 cm^2, heated) above one knee, time point 2 hrs): 13.5 ng/mL
concentration at 4 h ([2]; 136 mg, Single Patch, time point 4 hrs): 62.9 ng/mL
concentration at 6 h ([2]; 136 mg, Single Patch, time point 6 hrs): 96.7 ng/mL
concentration at 8 h ([2]; 136 mg, Single Patch, time point 8 hrs): 116 ng/mL
concentration at 10 h ([2]; 136 mg, Single Patch, time point 10 hrs): 132 ng/mL
concentration at 12 h ([2]; 136 mg, Single Patch, time point 12 hrs): 121 ng/mL
concentration at 14 h ([2]; 136 mg, Single Patch, time point 14 hrs): 79.8 ng/mL
concentration at 16 h ([2]; 136 mg, Single Patch, time point 16 hrs): 48.5 ng/mL
concentration at 18 h ([2]; 136 mg, Single Patch, time point 18 hrs): 36.3 ng/mL
concentration at 20 h ([2]; 136 mg, Single Patch, time point 20 hrs): 27.6 ng/mL
concentration at 24 h ([2]; 136 mg, Single Patch, time point 24 hrs): 16.4 ng/mL
concentration at 28 h ([2]; 136 mg, Single Patch, time point 28 hrs): 10 ng/mL
concentration at 32 h ([2]; 136 mg, Single Patch, time point 32 hrs): 6.1 ng/mL
concentration at 36 h ([2]; 136 mg, Single Patch, time point 36 hrs): 4.9 ng/mL
concentration at 42 h ([2]; 136 mg, Single Patch, time point 42 hrs): 3.9 ng/mL
concentration at 48 h ([2]; 136 mg, Single Patch, time point 48 hrs): 3.2 ng/mL
concentration at 6 h ([2]; 272 mg, Two Patches Dose-Normalized to one patch, time point 6 hrs): 88.1 ng/mL
concentration at 8 h ([2]; 272 mg, Two Patches Dose-Normalized to one patch, time point 8 hrs): 108 ng/mL
concentration at 10 h ([2]; 272 mg, Two Patches Dose-Normalized to one patch, time point 10 hrs): 123 ng/mL
concentration at 12 h ([2]; 272 mg, Two Patches Dose-Normalized to one patch, time point 12 hrs): 114 ng/mL
concentration at 14 h ([2]; 272 mg, Two Patches Dose-Normalized to one patch, time point 14 hrs): 78.1 ng/mL
concentration at 16 h ([2]; 272 mg, Two Patches Dose-Normalized to one patch, time point 16 hrs): 48.2 ng/mL
concentration at 18 h ([2]; 272 mg, Two Patches Dose-Normalized to one patch, time point 18 hrs): 34.2 ng/mL
concentration at 20 h ([2]; 272 mg, Two Patches Dose-Normalized to one patch, time point 20 hrs): 26.1 ng/mL
concentration at 24 h ([2]; 272 mg, Two Patches Dose-Normalized to one patch, time point 24 hrs): 15.5 ng/mL
concentration at 32 h ([2]; 272 mg, Two Patches Dose-Normalized to one patch, time point 32 hrs): 6.2 ng/mL
concentration at 36 h ([2]; 272 mg, Two Patches Dose-Normalized to one patch, time point 36 hrs): 5 ng/mL
concentration at 42 h ([2]; 272 mg, Two Patches Dose-Normalized to one patch, time point 42 hrs): 3.6 ng/mL
concentration at 2 h ([2]; 272 mg, Two Patches simultaneously, one above each knee, time point 2 hrs): 7.8 ng/mL
concentration at 4 h ([2]; 272 mg, Two Patches, time point 4 hrs): 89.2 ng/mL
concentration at 6 h ([2]; 272 mg, Two Patches, time point 6 hrs): 176 ng/mL
concentration at 8 h ([2]; 272 mg, Two Patches, time point 8 hrs): 217 ng/mL
concentration at 10 h ([2]; 272 mg, Two Patches, time point 10 hrs): 246 ng/mL
concentration at 12 h ([2]; 272 mg, Two Patches, time point 12 hrs): 229 ng/mL
concentration at 14 h ([2]; 272 mg, Two Patches, time point 14 hrs): 156 ng/mL
concentration at 16 h ([2]; 272 mg, Two Patches, time point 16 hrs): 96.3 ng/mL
concentration at 18 h ([2]; 272 mg, Two Patches, time point 18 hrs): 68.4 ng/mL
concentration at 20 h ([2]; 272 mg, Two Patches, time point 20 hrs): 52.2 ng/mL
concentration at 24 h ([2]; 272 mg, Two Patches, time point 24 hrs): 31 ng/mL
concentration at 28 h ([2]; 272 mg, Two Patches, time point 28 hrs): 18.6 ng/mL
concentration at 32 h ([2]; 272 mg, Two Patches, time point 32 hrs): 12.3 ng/mL
concentration at 36 h ([2]; 272 mg, Two Patches, time point 36 hrs): 9.9 ng/mL
concentration at 42 h ([2]; 272 mg, Two Patches, time point 42 hrs): 7.2 ng/mL
concentration at 48 h ([2]; 272 mg, Two Patches, time point 48 hrs): 6.2 ng/mL
